Measured values as given in ChEMBL document CHEMBL1150788, “In vitro susceptibility of Sporothrix schenckii to six antifungal agents determined using three different methods” (2007).
Converted amounts (≈) assume the structure as drawn.

How the values were obtained:
Type in all cases: functional
Sporothrix schenckii [1] = experiment: Antifungal activity against Sporothrix schenckii MRSS4 isolate from cutaneous-lymphatic sporotrichosis patient after 72 hrs by Sensititre YeastOne method
Sporothrix schenckii [2] = experiment: Antifungal activity against Sporothrix schenckii P30915 isolate from cutaneous-lymphatic sporotrichosis patient after 72 hrs by Sensititre YeastOne method
Sporothrix schenckii [3] = experiment: Antifungal activity against Sporothrix schenckii P25013 isolate from cutaneous-lymphatic sporotrichosis patient after 72 hrs by Sensititre YeastOne method
Sporothrix schenckii [4] = experiment: Antifungal activity against Sporothrix schenckii P24255 isolate from cutaneous-lymphatic sporotrichosis patient after 72 hrs by Sensititre YeastOne method
Sporothrix schenckii [5] = experiment: Antifungal activity against Sporothrix schenckii isolate from cutaneous-lymphatic sporotrichosis patient after 72 hrs by Sensititre YeastOne method
Sporothrix schenckii [6] = experiment: Antifungal activity against Sporothrix schenckii P30019 isolate from cutaneous-lymphatic sporotrichosis patient after 72 hrs by Sensititre YeastOne method
Candida parapsilosis [7] = experiment: Antifungal activity against Candida parapsilosis ATCC 22019 […] after 72 hrs by Sensititre YeastOne method; conditions: Lodderomyces parapsilosis, ATCC 22019, 72 h
Sporothrix schenckii [8] = experiment: Antifungal activity against Sporothrix schenckii P10012 isolate from cutaneous-lymphatic sporotrichosis patient after 72 hrs by Sensititre YeastOne method
Sporothrix schenckii [9] = experiment: Antifungal activity against Sporothrix schenckii P3287 isolate from cutaneous-lymphatic sporotrichosis patient after 72 hrs by Sensititre YeastOne method
Sporothrix schenckii [10] = experiment: Antifungal activity against Sporothrix schenckii PSCC1 isolate from cutaneous-lymphatic sporotrichosis patient after 72 hrs by Sensititre YeastOne method
Sporothrix schenckii [11] = experiment: Antifungal activity against Sporothrix schenckii P1621 isolate from cutaneous-lymphatic sporotrichosis patient after 72 hrs by Sensititre YeastOne method
Sporothrix schenckii [12] = experiment: Antifungal activity against Sporothrix schenckii P14954 isolate from cutaneous-lymphatic sporotrichosis patient after 72 hrs by Sensititre YeastOne method
Sporothrix schenckii [13] = experiment: Antifungal activity against Sporothrix schenckii PGAC0016 isolate from cutaneous-lymphatic sporotrichosis patient after 72 hrs by Sensititre YeastOne method
Sporothrix schenckii [14] = experiment: Antifungal activity against Sporothrix schenckii P26187 isolate from cutaneous-lymphatic sporotrichosis patient after 72 hrs by Sensititre YeastOne method
Sporothrix schenckii [15] = experiment: Antifungal activity against Sporothrix schenckii PJRC002 isolate from cutaneous-lymphatic sporotrichosis patient after 72 hrs by Sensititre YeastOne method
Sporothrix schenckii [16] = experiment: Antifungal activity against Sporothrix schenckii PSSA81 isolate from cutaneous-lymphatic sporotrichosis patient after 72 hrs by Sensititre YeastOne method
Pichia kudriavzevii [17] = experiment: Antifungal activity against Candida krusei ATCC 6258 […] after 72 hrs by Sensititre YeastOne method; conditions: ATCC 6258, 72 h
Sporothrix schenckii [18] = experiment: Antifungal activity against Sporothrix schenckii P0019 isolate from cutaneous-lymphatic sporotrichosis patient after 72 hrs by Sensititre YeastOne method
Sporothrix schenckii [19] = experiment: Antifungal activity against Sporothrix schenckii P20825 isolate from cutaneous-lymphatic sporotrichosis patient after 72 hrs by Sensititre YeastOne method
Sporothrix schenckii [20] = experiment: Antifungal activity against Sporothrix schenckii P14036 isolate from cutaneous-lymphatic sporotrichosis patient after 72 hrs by Sensititre YeastOne method
Sporothrix schenckii [21] = experiment: Antifungal activity against Sporothrix schenckii P24223 isolate from cutaneous-lymphatic sporotrichosis patient after 72 hrs by Sensititre YeastOne method
Sporothrix schenckii [22] = experiment: Antifungal activity against Sporothrix schenckii SSA29 isolate from cutaneous-lymphatic sporotrichosis patient after 72 hrs by Sensititre YeastOne method
Aspergillus flavus [23] = experiment: Antifungal activity against Aspergillus flavus ATCC 204304 […] after 72 hrs by modified NCCLS M38-A method; conditions: ATCC 204304, 72 h
Sporothrix schenckii [24] = experiment: Antifungal activity against Sporothrix schenckii P3287 isolate from cutaneous-lymphatic sporotrichosis patient after 72 hrs by modified NCCLS M38-A method
Sporothrix schenckii [25] = experiment: Antifungal activity against Sporothrix schenckii P24223 isolate from cutaneous-lymphatic sporotrichosis patient after 72 hrs by modified NCCLS M38-A method
Sporothrix schenckii [26] = experiment: Antifungal activity against Sporothrix schenckii P25013 isolate from cutaneous-lymphatic sporotrichosis patient after 72 hrs by modified NCCLS M38-A method
Sporothrix schenckii [27] = experiment: Antifungal activity against Sporothrix schenckii P24255 isolate from cutaneous-lymphatic sporotrichosis patient after 72 hrs by modified NCCLS M38-A method
Sporothrix schenckii [28] = experiment: Antifungal activity against Sporothrix schenckii P0019 isolate from cutaneous-lymphatic sporotrichosis patient after 72 hrs by modified NCCLS M38-A method
Sporothrix schenckii [29] = experiment: Antifungal activity against Sporothrix schenckii PJRC002 isolate from cutaneous-lymphatic sporotrichosis patient after 72 hrs by modified NCCLS M38-A method
Sporothrix schenckii [30] = experiment: Antifungal activity against Sporothrix schenckii P30915 isolate from cutaneous-lymphatic sporotrichosis patient after 72 hrs by modified NCCLS M38-A method
Sporothrix schenckii [31] = experiment: Antifungal activity against Sporothrix schenckii P30019 isolate from cutaneous-lymphatic sporotrichosis patient after 72 hrs by modified NCCLS M38-A method
Sporothrix schenckii [32] = experiment: Antifungal activity against Sporothrix schenckii isolate from cutaneous-lymphatic sporotrichosis patient after 72 hrs by modified NCCLS M38-A method
Sporothrix schenckii [33] = experiment: Antifungal activity against Sporothrix schenckii PSCC1 isolate from cutaneous-lymphatic sporotrichosis patient after 72 hrs by modified NCCLS M38-A method
Sporothrix schenckii [34] = experiment: Antifungal activity against Sporothrix schenckii P14036 isolate from cutaneous-lymphatic sporotrichosis patient after 72 hrs by modified NCCLS M38-A method
Sporothrix schenckii [35] = experiment: Antifungal activity against Sporothrix schenckii P1621 isolate from cutaneous-lymphatic sporotrichosis patient after 72 hrs by modified NCCLS M38-A method
Sporothrix schenckii [36] = experiment: Antifungal activity against Sporothrix schenckii SSA29 isolate from cutaneous-lymphatic sporotrichosis patient after 72 hrs by modified NCCLS M38-A method
Sporothrix schenckii [37] = experiment: Antifungal activity against Sporothrix schenckii PSSA81 isolate from cutaneous-lymphatic sporotrichosis patient after 72 hrs by modified NCCLS M38-A method
Sporothrix schenckii [38] = experiment: Antifungal activity against Sporothrix schenckii PGAC0016 isolate from cutaneous-lymphatic sporotrichosis patient after 72 hrs by modified NCCLS M38-A method
Aspergillus flavus [39] = experiment: Antifungal activity against Aspergillus flavus ATCC 204304 […] after 72 hrs by Sensititre YeastOne method; conditions: ATCC 204304, 72 h
Pichia kudriavzevii [40] = experiment: Antifungal activity against Candida krusei ATCC 6258 […] after 72 hrs by modified NCCLS M38-A method; conditions: ATCC 6258, 72 h
Candida parapsilosis [41] = experiment: Antifungal activity against Candida parapsilosis ATCC 22019 […] after 72 hrs by modified NCCLS M38-A method; conditions: Lodderomyces parapsilosis, ATCC 22019, 72 h
Sporothrix schenckii [42] = experiment: Antifungal activity against Sporothrix schenckii P26187 isolate from cutaneous-lymphatic sporotrichosis patient after 72 hrs by modified NCCLS M38-A method
Sporothrix schenckii [43] = experiment: Antifungal activity against Sporothrix schenckii MRSS4 isolate from cutaneous-lymphatic sporotrichosis patient after 72 hrs by modified NCCLS M38-A method
Sporothrix schenckii [44] = experiment: Antifungal activity against Sporothrix schenckii P20825 isolate from cutaneous-lymphatic sporotrichosis patient after 72 hrs by modified NCCLS M38-A method
Sporothrix schenckii [45] = experiment: Antifungal activity against Sporothrix schenckii P10012 isolate from cutaneous-lymphatic sporotrichosis patient after 72 hrs by modified NCCLS M38-A method
Sporothrix schenckii [46] = experiment: Antifungal activity against Sporothrix schenckii P14954 isolate from cutaneous-lymphatic sporotrichosis patient after 72 hrs by modified NCCLS M38-A method

## CC(=O)N1CCN(c2ccc(OCC3COC(Cn4ccnc4)(c4ccc(Cl)cc4Cl)O3)cc2)CC1 (stereo unspecified) [KETOCONAZOLE]
Sporothrix schenckii [1]
  MIC: 0.25 µg/mL (≈ 0.47 µM)
Sporothrix schenckii [2]
  MIC: 0.5 µg/mL (≈ 0.941 µM)
Sporothrix schenckii [3]
  MIC: 0.06 µg/mL (≈ 0.113 µM)
Sporothrix schenckii [4]
  MIC: 0.125 µg/mL (≈ 0.235 µM)
Sporothrix schenckii [5]
  MIC50: 0.25 µg/mL (≈ 0.47 µM)
  MIC90: 0.5 µg/mL (≈ 0.941 µM)
Sporothrix schenckii [6]
  MIC: 0.125 µg/mL (≈ 0.235 µM)
Candida parapsilosis [7]
  MIC: 0.125 µg/mL (≈ 0.235 µM)
Sporothrix schenckii [8]
  MIC: 0.25 µg/mL (≈ 0.47 µM)
Sporothrix schenckii [9]
  MIC: 0.5 µg/mL (≈ 0.941 µM)
Sporothrix schenckii [10]
  MIC: 0.125 µg/mL (≈ 0.235 µM)
Sporothrix schenckii [11]
  MIC: 0.25 µg/mL (≈ 0.47 µM)
Sporothrix schenckii [12]
  MIC: 0.25 µg/mL (≈ 0.47 µM)
Sporothrix schenckii [13]
  MIC: 0.125 µg/mL (≈ 0.235 µM)
Sporothrix schenckii [14]
  MIC: 0.25 µg/mL (≈ 0.47 µM)
Sporothrix schenckii [15]
  MIC: 0.125 µg/mL (≈ 0.235 µM)
Sporothrix schenckii [16]
  MIC: 0.06 µg/mL (≈ 0.113 µM)
Pichia kudriavzevii [17]
  MIC: 1 µg/mL (≈ 1.88 µM)
Sporothrix schenckii [18]
  MIC: 0.06 µg/mL (≈ 0.113 µM)
Sporothrix schenckii [19]
  MIC: 0.125 µg/mL (≈ 0.235 µM)
Sporothrix schenckii [20]
  MIC: 0.125 µg/mL (≈ 0.235 µM)
Sporothrix schenckii [21]
  MIC: 0.5 µg/mL (≈ 0.941 µM)
Sporothrix schenckii [22]
  MIC: 0.25 µg/mL (≈ 0.47 µM)

## C[C@@H](c1ncncc1F)[C@](O)(Cn1cncn1)c1ccc(F)cc1F [VORICONAZOLE]
Aspergillus flavus [23]
  MIC: 0.5 µg/mL (≈ 1.43 µM)
Sporothrix schenckii [1]
  MIC: 2 µg/mL (≈ 5.73 µM)
Sporothrix schenckii [2]
  MIC: 4 µg/mL (≈ 11.5 µM)
Sporothrix schenckii [24]
  MIC: 16 µg/mL (≈ 45.8 µM)
Sporothrix schenckii [3]
  MIC: 0.5 µg/mL (≈ 1.43 µM)
Sporothrix schenckii [25]
  MIC: 8 µg/mL (≈ 22.9 µM)
Sporothrix schenckii [4]
  MIC: 4 µg/mL (≈ 11.5 µM)
Sporothrix schenckii [26]
  MIC: 8 µg/mL (≈ 22.9 µM)
Sporothrix schenckii [5]
  MIC50: 2 µg/mL (≈ 5.73 µM)
  MIC90: 8 µg/mL (≈ 22.9 µM)
Sporothrix schenckii [6]
  MIC: 1 µg/mL (≈ 2.86 µM)
Candida parapsilosis [7]
  MIC: 0.06 µg/mL (≈ 0.172 µM)
Sporothrix schenckii [8]
  MIC: 0.5 µg/mL (≈ 1.43 µM)
Sporothrix schenckii [27]
  MIC: 8 µg/mL (≈ 22.9 µM)
Sporothrix schenckii [9]
  MIC: 8 µg/mL (≈ 22.9 µM)
Sporothrix schenckii [10]
  MIC: 2 µg/mL (≈ 5.73 µM)
Sporothrix schenckii [11]
  MIC: 2 µg/mL (≈ 5.73 µM)
Sporothrix schenckii [12]
  MIC: 8 µg/mL (≈ 22.9 µM)
Sporothrix schenckii [13]
  MIC: 4 µg/mL (≈ 11.5 µM)
Sporothrix schenckii [14]
  MIC: 4 µg/mL (≈ 11.5 µM)
Sporothrix schenckii [28]
  MIC: 16 µg/mL (≈ 45.8 µM)
Sporothrix schenckii [29]
  MIC: 4 µg/mL (≈ 11.5 µM)
Sporothrix schenckii [15]
  MIC: 2 µg/mL (≈ 5.73 µM)
Sporothrix schenckii [30]
  MIC: 16 µg/mL (≈ 45.8 µM)
Sporothrix schenckii [31]
  MIC: 4 µg/mL (≈ 11.5 µM)
Sporothrix schenckii [32]
  MIC50: 8 µg/mL (≈ 22.9 µM)
  MIC90: 16 µg/mL (≈ 45.8 µM)
Sporothrix schenckii [33]
  MIC: 4 µg/mL (≈ 11.5 µM)
Sporothrix schenckii [34]
  MIC: 8 µg/mL (≈ 22.9 µM)
Sporothrix schenckii [35]
  MIC: 16 µg/mL (≈ 45.8 µM)
Sporothrix schenckii [36]
  MIC: 8 µg/mL (≈ 22.9 µM)
Sporothrix schenckii [37]
  MIC: 8 µg/mL (≈ 22.9 µM)
Sporothrix schenckii [38]
  MIC: 16 µg/mL (≈ 45.8 µM)
Sporothrix schenckii [16]
  MIC: 0.5 µg/mL (≈ 1.43 µM)
Pichia kudriavzevii [17]
  MIC: 1 µg/mL (≈ 2.86 µM)
Aspergillus flavus [39]
  MIC: 0.25 µg/mL (≈ 0.716 µM)
Sporothrix schenckii [18]
  MIC: 0.5 µg/mL (≈ 1.43 µM)
Sporothrix schenckii [19]
  MIC: 0.5 µg/mL (≈ 1.43 µM)
Pichia kudriavzevii [40]
  MIC: 0.12 µg/mL (≈ 0.344 µM)
Sporothrix schenckii [20]
  MIC: 0.5 µg/mL (≈ 1.43 µM)
Sporothrix schenckii [21]
  MIC: 8 µg/mL (≈ 22.9 µM)
Candida parapsilosis [41]
  MIC: 0.03 µg/mL (≈ 0.0859 µM)
Sporothrix schenckii [42]
  MIC: 8 µg/mL (≈ 22.9 µM)
Sporothrix schenckii [22]
  MIC: 4 µg/mL (≈ 11.5 µM)
Sporothrix schenckii [43]
  MIC: 8 µg/mL (≈ 22.9 µM)
Sporothrix schenckii [44]
  MIC: 8 µg/mL (≈ 22.9 µM)
Sporothrix schenckii [45]
  MIC: 16 µg/mL (≈ 45.8 µM)
Sporothrix schenckii [46]
  MIC: 16 µg/mL (≈ 45.8 µM)
